Data on 1 molecule can be found in patent publication US7696408B2, “Method to enhance Agrobacterium-mediated transformation of plants” (Regents of the University of Minnesota, priority 1999, dated 2010).

Molecules are shown by their SMILES. “Also recorded” adds a separate entry of the source.

In experiment [1] the test system is soybean cot-node explants. Nature of the experiment: GUS transient expression on soybean cot-node explants after 5-day co-cultivation with Agrobacterium (T-DNA delivery). Format: cell-based, Glycine max. The source says: For each seedling, the roots and the majority of the hypocotyl were removed approximately 3-5 mm below the cotyledonary node by cutting the hypocotyl with a scalpel (Hinchee et al., 1998). The two cotyledons were then separated by cutting vertically through the hypocotyl region resulting in two explants. The epicotyl was subsequently removed on both explants, including all primary leaves and shoot meristems, and both the axillary bud and cotyledonary node were wounded by cutting about 10 times with a scalpel blade perpendicular to the hypocotyl. After all explants in a set were wounded (about 50), they were placed in a 25×100 mm petri plate containing 50 ml co-culture suspension for 30 minutes or inoculated into the 25 ml co-cultivation/Agrobacterium suspension for 30 minutes. The explants were then cultured on an agar-solidified co-culture media (0.5%) either without the addition of a test agent (e.g., cysteine) in 15×100 mm petri plates on top a sterile Whatman®#1 filter paper; five explants per plate with adaxial side down. Five plates were stacked together and wrapped in Parafilm®M then incubated at either 22° C. or 25° C. for 5 days in the dark.
After 5 days, the explants were washed in a liquid shoot induction media (B5 salts, MSIII iron stock, 3% sucrose, 3 mM MES, and filter sterilized B5 vitamins, 1.67 mg/l BAP, 100 mg/l cefotaxime, and 500 mg/l ticarcillin; pH 5.6) to remove excess Agrobacterium. Seven to ten explants from each cysteine level were washed in liquid shoot induction medium and placed in GUS histochemical stain (Jefferson et al., 1987). These explants were scored for GUS transient expression. Five to ten explants from each group were imbedded into a single 25×100 mm petri plate with solid shoot induction media (0.8% agar and agent, e.g., 400 mg/l cysteine) containing PPT concentrations of 1.33 mg/l, 3.33 mg/l, or 5.0 mg/l for selection. The plates were then incubated in a growth chamber with a fluctuating temperature between 18° C.-30° C. under a 18 hours light/6 hours dark cycle at 90-150 μE/m^2s.
The level of infection was scored using the GUS gene as a phenotypic marker immediately after co-culture and again after 4 weeks in shoot induction media. As it can be difficult to score the explants after co-cultivation due to the variation among explants and, in some cases, a complete staining of the target tissues, 6 categories were formed to assess the success of infection: • 4) None=There were no GUS positive sectors on any of the explants; • 5) Very low=Not all explants have GUS positive sectors, however, some have discrete foci usually seen on the hypocotyl or cot-node region. • 6) Low=More than ¾ the explants have GUS positive sectors in discrete foci on the hypocotyl and the cot-node region, but the foci are not numerous (<20). • 7) Medium=More than ½ the explants have significant GUS positive sectors at the cot-node region and hypocotyl, some seen as long lines of cells or larger sectors. • 8) Good=More than ¾ the explants have significant staining at the hypocotyl, the entire cot-node region, and on the cotyledons. […] Almost all explants have regions that are completely GUS positive. To reduce bias, samples were chosen at random and the level of infection scored before noting the treatment conditions. Samples that were between two categories are marked accordingly; those samples that resembled one category more than another were marked with a capital “X” and the other with a lowercase “x”.
Wounded soybean cot-node explants prepared from the cultivar ‘Bert’ were co-cultivated with Agrobacterium on solid co-cultivation medium containing various levels of cysteine for 5 days.

For experiment [2], the system named is Japonica rice meristem cultures. The settings on record: individually or in combination; Enríguez-Obregón et al., 1999; cited from earlier work.
In experiment [3] the test system is soybean cot-node explants. Put plainly: GUS transient expression on soybean cot-node explants after 5-day co-cultivation with Agrobacterium (T-DNA delivery). Format: cell-based, Glycine max. The source holds these as a separate data set.

For `N[C@@H](CS)C(=O)O` [L-cysteine], the “infection, cysteine in solid co-culture media (experiments #4-#6)” value in experiment [1] (0 or 400 mg/l cysteine in liquid and solid co-culture media) is reported as “increased infection”. Further, the “average frequency of explants containing a GUS+ focus at the cot-node” value in experiment [1] (300 to 1000 mg/l cysteine in solid co-cultivation medium, Bert, AGL1 pBSF16, 5 days, 30% with no cysteine) is reported as approximately 100%. The “GUS staining scores, difference from 0 mg/l cysteine” value in experiment [1] (400 and 1000 mg/l cysteine, α=0.05 (P<0.001)) is “significantly differ”. Further, the “frequency of explants with at least one GUS+ focus, difference from 0 mg/l cysteine” value in experiment [1] (400 and 1000 mg/l cysteine, α=0.05 (P<0.001), FIG. 1D) is reported as “significantly differ”. Further, the “frequency of explants with GUS+ foci at the cot-node, all genotypes” value in experiment [1] (5 days co-cultivation, MN0901, A3237, MN1801, MN0301, Granite, MN1401, MN1301, Lambert) is “increase”. In addition, the “GUS+ staining after co-cultivation” value in experiment [1] (Bert, LBA4404 pTOK233, agent in solid co-cultivation media, concentrations of Table 1, 5-day incubation) was “increases”. Also, the “infection (% of explants) at the entire cot-node region” value in experiment [1] (after 5-day incubation, cysteine containing solid co-culture media (100-400 mg/l L-cysteine), genotypes Bert, MN1301, MN0901, 50% of control explants) was 80-100%. Moreover, in experiment [1] (amended to solid co-cultivation media), the “GUS+ foci at the 5-day interval” value is “increase”. In addition, in experiment [1] (cysteine 400-1000 mg/l, eight independent experiments), the “number of GUS+ foci per explant five days post-inoculation” value is reported as “increase”. Also, the “frequency of GUS positive sectors/foci with strain LBA4404 pTOK233” value in experiment [1] (cysteine during co-cultivation vs control, 5 days) is “exceed in the frequency of GUS positive sectors over the control explants; also recorded: greater”. In experiment [1] (cysteine, especially 300 and 400 mg/l, MN1301, MN0901, Bert), the “GUS positive sectors after co-cultivation (experiments #1-#3)” value was “extensive GUS positive sectors”. The “frequency of explants with at least one GUS+ focus at the cot-node” value in experiment [1] (five days post-inoculation, cysteine 400-1000 mg/l, eight independent experiments, 30% without) was determined as 100%. For the same molecule, the “damage and viability of Japonica rice meristem cultures” value in experiment [2] was “decreased damage and increased viability”. In experiment [3] (400 mg/l cysteine, MN1401, Granite, Lambert, MN1801, MN0301), the “infection in genotypes that respond poorly to the cot-node method” value is “significant increase in infection”. Further, the “GUS+ foci on 5 day explants, cysteine only in liquid media” value in experiment [3] (cysteine added only to liquid Agrobacterium culture (YEP) or liquid co-cultivation medium) was “did not increase; also recorded: no increases detected”.
